Data published in patent publication US20030203963A1, “Antimicrobial agent” (priority 2001, published 2003).

How the values were obtained:
[1] = system: Ps. fluorescens 3756; assay: Chicken soup trial at 8° C.; assay type: cell-based, Pseudomonas fluorescens; details: chicken soup at 8° C.
Description: (§1) A local supermarket brand of cream of chicken soup was used as a model food system. 600 g packs were purchased from the local supermarket. This was a ‘fresh home-made type’ of soup that was stored in the chill cabinet, with a short shelf life. It was chosen because it is a rich, nutritious food system containing a range of food components including meat, dairy and vegetable.
(§2) Ingredients were labelled as: chicken stock (water, duck fat, chicken, salt, flavourings, yeast extracts, pork gelatine, glucose syrup, vegetable concentrate, milk protein, sugar, malto-dextrin, vegetable oil, citric acid, lactose, chicken fat), ilk, chicken (9%), cream (8%), onion, potato, vegetable oil, modified maize starch, wheat flour, lemon juice, salt, white pepper. pH 5.912. Protein: 3.3%; carbohydrate: 4.7%; fat: 7.2%; fibre: 0.2%; sodium: 0.1%
(§3) For the test the soup was mixed 2:1 in water (to facilitate sampling and mixing) and sterilised by autoclaving at 121° C. for 15 minutes. For each experiment the pH of the soup was recorded; this was between pH 5.79-5.88.
For TCS010412/8 (which was incubated at 8° C.), APP batch number APP20010213 (concentration 169 mg APP/ml) was used to prepare tests containing 0, 2000 or 4000 ppm APP. 5 g of filter-sterilised APP stock solution was added to 94 g of soup, mixed and then 1 ml of a diluted inoculum suspension (cells or spores as appropriate) was added to give a test inoculum level of 10^3 cfu/g. The soup mixture was shaken vigorously to ensure homogeneous distribution of the APP and micro-organisms. The tests were tested by viable count and then incubated at 8° C. and tested on a twice-weekly basis.
For TCS010521/8 (incubated at 8° C.), samples were prepared in 27.8 g quantities. 1.5 g of an APP stock solution was added, and the tests inoculated with 0.3 ml of a suitably diluted cell or spore suspension to give a final inoculum of ca. 10^3 cfu/g. APP was tested at 0, 500 and 1000 ppm, and batch number APP20010213 (at 169 mg/ml) was used. The tests were sampled by viable count and then incubated at 8° C. and tested on a twice-weekly basis.

[2] = system: Lb. sake A10; assay: Test in cooked sausage meat slurry; assay type: cell-based, Lactobacillus sake; details: for Effect on growth: cooked sausage meat slurry at 8° C., pH 6.2, TSM010605
Description: (§4) 500 g of bologna sausage meat mixture was mixed with 500 g Brain Heart Infusion broth (BHIB) to make a homogeneous slurry. The bologna sausage meat mix comprised (g per kg): lean beef 320; lean pork 202; lard 250; water 40; glucose 5; starch 155; spice mix 3.75; sodium glutamate 0.5; sodium erythorbate 0.545; sodium di-phosphate 3; NaCl 20; sodium nitrite 0.15. 200 g samples of the meat slurry were autoclaved. While the meat was still warm it was re-mixed thoroughly. When the meat had cooled it was inoculated with 2 ml of 10^5 cfu/ml spore or cell suspension, and re-mixed again. Each inoculated meat sample was divided into 3×50 g samples, and 1 ml of either SDW, 2.5% or 5% APP solution (batch number APP 20010215) was added to prepare meat samples containing 0, 500 and 1000 ppm APP. The meat slurry was again shaken thoroughly to ensure even mixing, an initial viable count was taken and the samples incubated at 8° C. Samples were taken at twice-weekly intervals. The pH of the sausage meat slurry was 6.2.

[3] = system: L. monocytogenes S23; assay: In vitro cidal experiment; assay type: cell-based, Listeria monocytogenes; details: ambient temperature
Experimental: 100 μl of SDW (sterile deionised water) or APP sample E002012 was added to 890 μl 10 mM HEPES buffer (pH 7). […] After this time the bacteria were enumerated by viable count. The concentration of the APP sample was 24.7 μg/ml.

[4] = system: Br. thermosphacta CRA78883; assay: Test in cooked minced beef slurry; assay type: cell-based, Brochothrix thermosphacta; details: 2000 ppm; minced beef slurry at 8° C., pH 6.24, TCM010619
Experimental: (§5) 1 kg of minced beef, purchased from the local butcher, was mixed with 1 litre of BHI. 200 g portion of this meat slurry was autoclaved. When the meat had cooled, the pH was recorded (pH 6.24), and each pot was inoculated with 2.0 ml of 10^5 spores or cells and the meat re-mixed thoroughly. Each inoculated 200 g pot was distributed as 3×50 g portions. To each pot 1 ml of SDW, 5% or 10% APP (Batch No. APP20010215) was added, and the meat was again mixed thoroughly. An initial viable count was performed, the meat was incubated at 8° C. and sampled twice weekly. The pH of the cooked minced beef slurry was 6.24.

[5] = system: B. cereus 204; assay: Test in cooked minced beef slurry; assay type: cell-based, Bacillus cereus; details: minced beef slurry at 8° C., pH 6.24, TCM010619
Experimental: as §5

[6] = cited from earlier work
[7] = system: B. cereus 204; assay: Test in cooked sausage meat slurry; assay type: cell-based, Bacillus cereus
Description: as §4

[8] = system: Ps. fluorescens 3756; assay: Chicken soup trial at 20° C.; assay type: cell-based, Pseudomonas fluorescens
Description: as §1, §2, §3
For TCS010430/20 (incubated at 20° C.) samples were prepared in 18.8 g quantities, to which 1 g of a suitable filter-sterilised APP stock solution was added and an appropriately diluted 0.2 ml inoculum. Great care was again taken to ensure homogeneous distribution of the APP and micro-organisms. This test was sampled by viable count test on a daily basis.

[9] = Cooked sausage meat slurry at 8° C. pH 6.2, (1000)
[10] = 2000 ppm, chicken soup at 20° C., TCSM010430, APP20010213

## O=C1CC(CO)OC=C1O (centres unmarked) [APP, Ascopyrone P]
[1]; 500 ppm, TCSM010521, APP215
  Effect on growth: Little effect with 500 ppm
[1]; 1000 ppm, TCSM010521, APP215
  Counts undetectable: At 1000 ppm counts undetectable >3 d
  Total inhibition for: Total inhibition by 1000 ppm for >27 days.
[1]; 2000 ppm, TCS010412, APP20010213
  Total inhibition for: Total inhibition by 2000 and 4000 ppm for >60 days.
[1]; 4000 ppm, TCS010412, APP20010213
  Total inhibition for: Total inhibition by 2000 and 4000 ppm for >60 days.
[1]; APP samples (2000, 4000 ppm), TCS010412, APP20010213
  Counts undetectable from day: Counts undetectable from day 1 in APP samples
[2]; 500 ppm
  Effect on growth: No effect with 500 and 1000 ppm
[2]; 1000 ppm
  Effect on growth: No effect with 500 and 1000 ppm
[2]; [9]
  No inhibition (effect on growth of target organism by APP): Lb. sake (1000)
[3]; 24.7 μg/ml APP E002012, 10 mM HEPES buffer (pH 7)
  Viable count after 2 h incubation: 1.3 × 10^7
[3]; 24.7 μg/ml APP, buffer
  Listeria counts after 2 h incubation: remained steady
[4]
  Effect on growth: No effect with 2000 ppm
[5]; 1000 ppm
  Effect on growth: 1000 ppm extended lag phase.
[5]; 2000 ppm
  Growth to 10^6 delayed by: 2000 ppm delayed growth to 10^6 by 7 d.
[6]; less stable at increasing pH
  pH at which stable: 1.5-5.5
[6]; pH 11-12.5
  half-life: 5 h
[7]; 1000 ppm, cooked sausage meat slurry at 8° C., TSM010605, controls 5 d
  10^6 reached at: 7 d
[7]; 1000 ppm, cooked sausage meat slurry at 8° C., pH 6.2, TSM010605
  Effect on growth: No total inhibition
[7]; [9]
  Partial inhibition (effect on growth of target organism by APP): B. cereus (1000)
[8]; 1000 ppm, chicken soup at 20° C., TCSM010430, APP20010213
  Effect on growth: No significant effect with 1000 ppm
[8]; [10]
  Counts: undetectable).
  Total inhibition for: Total inhibition by 2000 ppm for >42 days (counts
[8]; Chicken soup at 20° C. pH 5.8
  Total inhibition (effect on growth of target organism by 2000 ppm APP): Ps. fluorescens
